The results in this text go back to patent US20160220523A1 (GEORGETOWN UNIVERSITY, priority 2013, published 2016).

SMILES strings stand for the structures.

Assay type in all cases: cell-based, murine
In one assay the test system is PGC-1α. Description: PGC-1α expression in LPS-treated BV2 cells (RT-PCR). The following applies: GW6471 0.25-2 μM 0.5 hrs, 20 μM fenofibrate 18 hrs, 100 ng/mL LPS 4 hrs. The procedure: (§1) PGC-1α expression was determined by RT-PCR.
(§2) Then the cells were treated with 100 ng/mL LPS for 4 hrs. […] (**p<0.01 vs. control; ##p<0.001 vs. LPS).
(§3) MN9D cells were cultured in Dulbecco's Modified Eagle Medium (DMEM) supplemented with 10% fetal bovine serum, and 3.7 g/L sodium bicarbonate at 37° C., 5% carbon dioxide. BV-2 cells (murine microglia) were maintained in DMEM supplemented with 10% fetal bovine serum and antibiotics (penicillin, 100 U/mL, streptomycin […]). Antibiotics were omitted for the fenofibrate evaluation study.

The subject of the next assay is IL-1β. Description: LPS-induced IL-1β expression in BV2 cells (RT-PCR). The procedure:
as §1, §2
(§4) Cell lysate was collected for Western blotting analysis.
as §3
(§5) AMPK is an energy sensor and can phosphorylate PGC-1α. It is plausible that AMPK phosphorylates PGC-1α and that PGC-1α then acts through positive feedback, binding to myocyte enhancer factor (MEF)-binding site to increase its own gene expression.

Another assay relates to AMPK. Description: AMPK phosphorylation in BV2 cells (Western blot). Conditions: compound C 0.5 hour, then fenofibrate 1 hour. The procedure:
as §4
BV-2 cells (murine microglia) were maintained in Dulbecco's Modified Eagle Medium supplemented with 10% fetal bovine serum and antibiotics (penicillin, 100 U/mL, streptomycin 100 μg/mL). Antibiotics were omitted for the fenofibrate evaluation study.
as §5
On the technique in general: Immunoblotting shows a protein as a band on a membrane.

For the compound `CCC(=O)NC[C@H](Cc1ccc(OCCc2nc(-c3ccccc3)oc2C)cc1)N/C(C)=C\C(=O)c1ccc(C(F)(F)F)cc1` [GW6471], in the assay on PGC-1α, the “effect on fenofibrate mediated PGC-1α upregulation” value is “fails to suppress”. Moreover, the “effect on fenofibrate mediated anti-inflammatory effects (IL-1β mRNA)” value in the assay with IL-1β (GW6471 0.25-2 μM 0.5 hrs, 20 μM fenofibrate 18 hrs, 100 ng/mL LPS 4 hrs) is “fails to suppress”.

Regarding `c1cc(-c2cnn3cc(-c4ccc(OCCN5CCCCC5)cc4)cnc23)ccn1` [compound C], the “effect on fenofibrate mediated anti-inflammation (IL-1β gene expression)” value in the assay with IL-1β (Compound C 0.5 hour, then fenofibrate overnight, LPS) is listed as “weakened the anti-inflammatory effects of fenofibrate”. Further, the “AMPK phosphorylation under fenofibrate” value in the assay with AMPK is on record as “concentration-dependent inhibitory effect”.
